Source: article PMC6934184, “Selective DNA-PKcs inhibition extends the therapeutic index of localized radiotherapy and chemotherapy” (The Journal of Clinical Investigation, 2019)

Target: T1, TGFBR2 (Homo sapiens, UniProt P37173)
T1 construct: purchased Thermo Fisher Scientific (Life Technologies) SelectScreen
Test: SelectScreen LanthaScreen
Assay type: binding
Settings: read-out: % displacement
Summary of the method: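 SelectScreen broad panel; activity (Z'LYTE, Adapta) plus binding formats. ATP: Km app for CSF1R Z'LYTE; 10 for CAMK1 Adapta. Readout = % per kinase.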

T1 sequence (P37173 23-567): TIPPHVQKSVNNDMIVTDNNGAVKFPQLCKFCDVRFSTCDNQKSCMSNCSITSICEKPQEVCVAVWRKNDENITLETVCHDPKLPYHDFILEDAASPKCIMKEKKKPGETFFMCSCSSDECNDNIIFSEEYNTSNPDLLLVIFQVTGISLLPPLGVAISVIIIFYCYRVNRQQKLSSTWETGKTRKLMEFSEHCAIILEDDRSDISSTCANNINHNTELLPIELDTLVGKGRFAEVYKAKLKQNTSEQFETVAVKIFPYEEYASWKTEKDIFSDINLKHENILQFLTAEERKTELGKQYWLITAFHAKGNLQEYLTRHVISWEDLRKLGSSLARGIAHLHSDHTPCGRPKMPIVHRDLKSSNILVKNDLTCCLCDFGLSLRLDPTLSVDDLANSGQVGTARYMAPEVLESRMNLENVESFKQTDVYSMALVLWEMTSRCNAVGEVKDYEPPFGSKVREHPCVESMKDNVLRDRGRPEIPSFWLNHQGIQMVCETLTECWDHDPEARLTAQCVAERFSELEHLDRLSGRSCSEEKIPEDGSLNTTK

Compound: CN(C(=O)CN1CCOCC1)c1ccc2sc3c(-c4cccc5c(=O)cc(N6CC7CCC(C6)O7)oc45)cccc3c2c1 [NU5455]
- inhibition at 1 µM: -0.1%
